Reference: patent US12285399B2, “Composition comprising bornyl acetate or pharmaceutically acceptable salt thereof as active ingredient for prevention or treatment of stress-related disorder” (UNIVERSITY-INDUSTRY COOPERATION GROUP OF KYUNG HEE …, priority 2019, dated 2025)

Key:
CD11b protein = assay: Western blot of CD11b protein in brain (hippocampus and amygdala) of CRS model; format: in vivo, C57BL/6NTac mice; details: CRS+BA group
Description: In order to confirm the antidepressant efficacy of bornyl acetate on the animal model of stress depression, an animal model of depression induced by chronic restrained stress (CRS) was prepared. Specifically, the animal model, 8-week-old male C57BL/6NTac mice after birth (Narabiotechnology, Korea; weight 22-24 g) had been stabilized for 1 week. A 50 ml conical tube (SPL Life sciences, Pocheon, Korea) was punched to make a hole, thereby making a restraint frame. The mice were put in the frame and restrained for 2 hours every day for 14 days. After restraint, the mice were allowed to freely ingest water and food in the home cage. The hippocampus and amygdala of the brain were excised. They were added to 200 μl of a protein lysis buffer (10 mM Tris, 0.5 mM EDTA, 0.25 M sucrose), and proteins were isolated using a grinder. The isolated protein was quantified by the Bradford method (Bio-rad, USA) using bovine serum albumin (BSA, Sigma, USA), and then 25 μg of the protein was separated by 10% sodium dodecyl sulfate-polyacrylamide gel electrophoresis (SDS-PAGE) and transferred to polyvinylidene difluoride (PVDF) membrane (Gendepot, UK). PVDF membranes were blocked in 5% skimmed milk (BD, USA) for 1 hour. […] Identification and quantitative analysis of proteins were analyzed using an imaging device ChemiDoc XRS+ (Bio-Rad). […]

COX-2 mRNA = assay: RT-PCR of COX-2 mRNA in brain (hippocampus and amygdala) of CRS model; format: in vivo, C57BL/6NTac mice; details: CRS+BA group, 100 mg/kg oral
Description: In order to confirm the antidepressant efficacy of bornyl acetate on the animal model of stress depression, an animal model of depression induced by chronic restrained stress (CRS) was prepared. Specifically, the animal model, 8-week-old male C57BL/6NTac mice after birth (Narabiotechnology, Korea; weight 22-24 g) had been stabilized for 1 week. A 50 ml conical tube (SPL Life sciences, Pocheon, Korea) was punched to make a hole, thereby making a restraint frame. The mice were put in the frame and restrained for 2 hours every day for 14 days. After restraint, the mice were allowed to freely ingest water and food in the home cage.
In order to confirm the inhibitory effect of bornyl acetate on the expression of inflammatory mediators in an animal model of depression induced by chronic restrained stress, mRNA expression was confirmed using reverse transcription-polymerase chain reaction (RT-PCR). Bornyl acetate (100 mg/kg) was orally administered 1 hour before inducing the restrained stress every day. […]
Western blot and RT-PCR analysis were performed in the brain (hippocampus and amygdala) of an animal model of chronic restrained stress (CRS)-induced stress depression to exam and quantify the activation level of inflammatory mediators, thereby verifying the modulating effect of bornyl acetate on the inflammatory response in the brain. […]

CC(=O)OC1CC2CCC1(C)C2(C)C (stereo not shown) [BA, bornyl acetate]
significantly inhibited: expression of CD11b protein (CRS-induced increase) (CD11b protein; amygdala) | expression of CD11b protein (CRS-induced increase) (CD11b protein; hippocampus) | mRNA expression of COX-2 (CRS-induced increase) (COX-2 mRNA; amygdala) | mRNA expression of COX-2 (CRS-induced increase) (COX-2 mRNA; hippocampus)
